For 3 compounds, amplitude increase and signal amplitude results are on record in patent publication US8470525B2, “Method for analyzing air” (priority 2011, dated 2013).

What all share (type): biochemical
The nature of assay [1]: Air monitoring device: detection of aerosolized enzyme protein by fluorescence from indoxyl acetate substrate. Conditions: Example 6, FIG. 10: enzyme solution 3 mg/ml aerosolized; 3 minute cycles; cycles four, five and six; clean air amplitude 0. As to the method:
Example 6 provides a method of this invention for the detection of a protein in the air. The device in this example was operated continuously in 3 minute cycles. Each cycle consists of a 30 second sampling period at a flow rate of 1 liter per minute, a 5 second substrate addition step, a 85 second reading period and a 60 second rinse step. The consumables/reagents consisted of a) 12.5 mg/ml indoxyl acetate substrate solution in isopropyl alcohol (IPA), diluted in buffer 100 fold and b) 100 mM buffer at pH 7.0. This example used a polyethylene disk with a pore size of 15-45 um and a thickness of 1.6 mm as the impactor disk. The substrate aerosol was generated using 5×500 ms pulses every second for 5 seconds total. The rinse step at conclusion of the cycle was accomplished by continuously aerosolizing buffer for about 60 seconds.
Specifically, acetylcholinesterase enzyme solution was aerosolized into a plastic test chamber at a concentration of 3 mg/ml. The sampled air was contaminated with enzyme two times at intervals indicated by solid triangles (beginning) and white triangles (end). As set forth in FIG. 10, the device indicated the presence of the target protein by an amplitude increase to at least 2,000 fluorescent units in cycles four, five and six compared to an amplitude of 0 in cycles one, two and three during the time clean air was sampled.

The target of assay [2] is T1, acetylcholinesterase enzyme (Homo sapiens, UniProt P22303). The assay can be described thus: Enzyme-based air monitoring device: detection of cholinesterase inhibitor in air by loss of acetylcholinesterase/indoxyl acetate fluorescence signal. Conditions: Example 4, FIG. 8: aerosol from 2.5 ppm paraoxon solution; 4 minute cycles; polyethylene disk 15-45 um; clean-air cycle around 14,000.
T1 sequence (P22303 32-614, species assumed): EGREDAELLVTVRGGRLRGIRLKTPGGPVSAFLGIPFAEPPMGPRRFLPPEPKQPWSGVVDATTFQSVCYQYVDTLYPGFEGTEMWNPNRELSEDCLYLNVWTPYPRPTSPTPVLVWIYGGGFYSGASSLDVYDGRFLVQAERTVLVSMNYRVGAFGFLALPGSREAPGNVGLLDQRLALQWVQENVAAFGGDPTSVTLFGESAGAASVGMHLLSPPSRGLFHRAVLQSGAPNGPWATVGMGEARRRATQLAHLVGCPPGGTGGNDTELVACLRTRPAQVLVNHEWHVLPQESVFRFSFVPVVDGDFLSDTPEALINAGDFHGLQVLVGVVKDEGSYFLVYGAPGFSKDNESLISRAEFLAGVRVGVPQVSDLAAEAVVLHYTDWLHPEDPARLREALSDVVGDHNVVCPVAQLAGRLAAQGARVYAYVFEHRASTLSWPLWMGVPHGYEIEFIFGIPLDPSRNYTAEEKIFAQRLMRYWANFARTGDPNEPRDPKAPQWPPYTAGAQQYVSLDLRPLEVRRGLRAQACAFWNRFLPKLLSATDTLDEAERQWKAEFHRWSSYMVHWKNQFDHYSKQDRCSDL
Description: In this embodiment of the invention, the device and method operates in repetitive cycles ranging from 30 seconds to 10 minutes. […] The cycle shown in FIG. 2 took 5 minutes for completion. The enzyme and substrate addition took 5 seconds, the sampling time took 115 seconds, the reading took 85 seconds and was concluded by the alarm status update at the end which requires only a fraction of a second, and the rinse took 90 seconds. Each cycle concludes with the rinse step where components of the reaction are rinsed off the surface of the collection matrix and preferably from the reaction zone and the surface of the collection matrix, in order to set the stage for a new sampling cycle.
FIGS. 3a and 3b illustrate the steps of one 5 minute cycle with no detection event in more detail. […] Particles, aerosols and vapor from the environment are collected on the impactor disk or surface of the collection matrix. During this step one nebulizer is activated adding aerosolized enzyme visualized in FIGS. 3a and 3b by clam shaped symbols. The enzyme is being accumulated on the impactor disk/surface of the collection matrix. […] During the next step 4) 85 seconds reading, the catalytic reaction of the enzyme substrate complex is monitored with an optical system. […] During the reading period, the air sampling pump is typically switched off. […]

The target of assay [3] is T1, acetylcholinesterase enzyme. Nature of the assay: Air monitoring device: detection of aerosolized enzymatic substrate by fluorescence after enzyme addition. The following applies: Example 7, FIG. 11: indoxyl acetate solution 0.1 mg/ml aerosolized; 4 minute cycles; cycles three and four; clean air amplitude 500. On the procedure: Example 7 provides a method of this invention to detect other chemicals in the air. The device in this example was operated continuously in 4 minute cycles. Each cycle consists of a 2 minute second sampling period at a flow rate of 1 liter per minute, 5 second enzyme addition step, a 85 second reading period and a 30 second rinse step. The consumables/reagents consisted of a) 3 mg/ml acetylcholinesterase enzyme solution in buffer and b) 100 mM buffer at pH 7.0. This example used a polyethylene disk with a pore size of 15-45 um and a thickness of 1.6 mm as the impactor disk. The enzyme aerosol was generated using 5×500 ms pulses every second for 5 seconds total. The rinse step at conclusion of the cycle was accomplished by continuously aerosolizing buffer for about 30 seconds.
Specifically, indoxyl acetate solution was aerosolized into a plastic test chamber at a concentration of 0.1 mg/ml. […] The device indicated the presence of the target protein by an amplitude increase to at least 3,000 fluorescent units in cycles three and four compared to an amplitude of 500 in cycles one and two during the time clean air was sampled.

As for acetylcholinesterase, the amplitude increase result in assay [1] is recorded as “at least 2,000 fluorescent units”. Consider `CCOP(=O)(OCC)Oc1ccc([N+](=O)[O-])cc1` [paraoxon], for which, in assay [2], the signal amplitude result is on record as “around 4,000 fluorescent units”. Take indoxyl acetate: the amplitude increase entry in assay [3] is reported as “at least 3,000 fluorescent units”.
